Normalised viability data for 19 compounds are collected here from the supplement of paper PMC4862054.

Holding throughout (experiment): normalised viability (% of control), CellTiter-Blue; higher = more viable cells (about 100 = DMSO control)
Common to all, as to details: incubation time: 72 h
A general note: Resazurin is reduced to fluorescent resorufin, in cell work by metabolically active cells.

Experiment [1] deals with CAL-85-1. The method, then: (§1)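 DSRT, CellTiter-Blue viability, 72 h incubation. Signal is normalised to DMSO and benzethonium chloride controls. Value is the normalised response at dose 8.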
In experiment [2] the test system is CAL-148. The method, then: as §1
For experiment [3], the system named is HDQ-P1. Here is the method:
as §1

For experiment [4], the system named is MDA-MB-453. The method, then:
as §1

For experiment [5], the system named is DU-4475. The method, then: as §1
Experiment [6] concerns CAL-51. The method, then: as §1
Experiment [7] relates to CAL-85-1. The method, then:
(§2)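 DSRT, CellTiter-Blue viability, 72 h incubation. Signal is normalised to DMSO and benzethonium chloride controls. Value is the normalised response at dose 6.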
This is another data set of the same source.

Experiment [8] deals with CAL-148. The method, then:
as §2
This is another data set of the same source.

The test system of experiment [9] is HDQ-P1. Here is the method:
as §2
This is another data set of the same source.

Experiment [10] deals with MDA-MB-453. Here is the method: as §2
This is another data set of the same source.

The subject of experiment [11] is DU-4475. The method, then:
as §2
This is another data set of the same source.

For experiment [12], the system named is CAL-51. The method, then: as §2
The source holds these as a separate data set.

In the case of `COc1ccc(S(=O)(=O)Nc2cccnc2Nc2ccc(O)cc2)cc1` [ABT-751] (3000 nM), the normalised viability worked out at 26.8% in the experiment with CAL-85-1 [1]; 15% with CAL-148 [2]; 37.8% in the experiment on HDQ-P1 [3]; 27.7% in the experiment with MDA-MB-453 [4]; 17.4% with DU-4475 [5]; 19% in the experiment on CAL-51 [6].
As to `Cc1cc(Nc2nc(N[C@@H](C)c3ncc(F)cn3)ncc2Cl)[nH]n1` [AZD1480] (300 nM), the normalised viability turned out to be 106% in the experiment on CAL-85-1 [1]; 106% with CAL-148 [2]; 122% in the experiment on HDQ-P1 [3]; 94.2% with MDA-MB-453 [4]; 89.3% in the experiment with DU-4475 [5]; 98.8% in the experiment with CAL-51 [6].
`CNC(=O)c1ccccc1Sc1ccc2c(/C=C/c3ccccn3)n[nH]c2c1` [Axitinib] (3000 nM): the normalised viability with CAL-85-1 [1] turned out to be 65.5%; in the experiment on CAL-148 [2], 46%; in the experiment on HDQ-P1 [3] it was 64.8%; with MDA-MB-453 [4], 55.4%; in the experiment with DU-4475 [5] it was 33.9%; in the experiment on CAL-51 [6], 40.2%.
Take `CC(O)(CS(=O)(=O)c1ccc(F)cc1)C(=O)Nc1ccc(C#N)c(C(F)(F)F)c1` (centres undefined) [Bicalutamide] (3000 nM): the normalised viability is 101% in the experiment with CAL-85-1 [1]; 103% in the experiment on CAL-148 [2]; 96.8% in the experiment with HDQ-P1 [3]; 114% in the experiment with MDA-MB-453 [4]; 103% with DU-4475 [5]; 120% with CAL-51 [6].
`CCNC(=O)CCC/C=C\C[C@@H]1[C@@H](/C=C/[C@@H](O)CCc2ccccc2)[C@H](O)C[C@@H]1O` [Bimatoprost] (1650 nM): the normalised viability with CAL-85-1 [1] was found to be 102%; in the experiment on CAL-148 [2] it was 91.1%; in the experiment with HDQ-P1 [3], 97.4%; with MDA-MB-453 [4], 92.4%; with DU-4475 [5], 120%; in the experiment on CAL-51 [6], 111%.
Take `COc1cc(Nc2c(C#N)cnc3cc(OCCCN4CCN(C)CC4)c(OC)cc23)c(Cl)cc1Cl` [Bosutinib] (3000 nM): the normalised viability with CAL-85-1 [1] was found to be 54.3%; with CAL-148 [2], 39.8%; in the experiment on HDQ-P1 [3], 44.2%; in the experiment with MDA-MB-453 [4], 50.1%; in the experiment on DU-4475 [5], 98.6%; in the experiment on CAL-51 [6], 80.3%.
As to `CCN(CC)CCCC(C)Nc1ccnc2cc(Cl)ccc12` (centres undefined) [Chloroquine] (297 nM), the normalised viability in the experiment on CAL-85-1 [1] amounted to 96%; in the experiment with CAL-148 [2], 95.9%; with HDQ-P1 [3], 118%; in the experiment on MDA-MB-453 [4], 100%; in the experiment with DU-4475 [5], 85.2%; with CAL-51 [6], 93.4%.
`Cn1cc(C2=C(c3cn(C4CCN(Cc5ccccn5)CC4)c4ccccc34)C(=O)NC2=O)c2ccccc21` [Enzastaurin] (300 nM): the normalised viability in the experiment with CAL-85-1 [7] was 90.2%; in the experiment on CAL-148 [8], 79.2%; with HDQ-P1 [9], 45.9%; with MDA-MB-453 [10], 80.6%; in the experiment with DU-4475 [11], 77.5%; in the experiment on CAL-51 [12], 92.3%.
Consider `Cn1cc(C2=C(c3cn(C4CCN(Cc5ccccn5)CC4)c4ccccc34)C(=O)NC2=O)c2ccccc21` [Enzastaurin] (3000 nM), for which the normalised viability in the experiment with CAL-85-1 [1] was 85%; with CAL-148 [2], 69%; in the experiment with HDQ-P1 [3], 89.8%; in the experiment on MDA-MB-453 [4], 53.6%; in the experiment on DU-4475 [5], 87.3%; with CAL-51 [6], 88.6%.
Take `CC(C)(C)NC(=O)[C@H]1CC[C@H]2[C@@H]3CC[C@H]4NC(=O)C=C[C@]4(C)[C@H]3CC[C@]12C` [Finasteride] (300 nM): the normalised viability in the experiment with CAL-85-1 [7] was 97.8%; in the experiment with CAL-148 [8], 106%; with HDQ-P1 [9], 109%; in the experiment on MDA-MB-453 [10] it was 112%; in the experiment with DU-4475 [11] it was 96.4%; with CAL-51 [12], 105%.
Take `CC(C)(C)NC(=O)[C@H]1CC[C@H]2[C@@H]3CC[C@H]4NC(=O)C=C[C@]4(C)[C@H]3CC[C@]12C` [Finasteride] (3000 nM): the normalised viability with CAL-85-1 [1] was found to be 92.2%; in the experiment on CAL-148 [2] it was 96.4%; with HDQ-P1 [3], 127%; with MDA-MB-453 [4], 114%; with DU-4475 [5], 97%; in the experiment on CAL-51 [6], 104%.
As to `Nc1ccn([C@@H]2O[C@H](CO)[C@@H](O)C2(F)F)c(=O)n1` [Gemcitabine] (30 nM), the normalised viability in the experiment with CAL-85-1 [7] amounted to 58.7%; in the experiment with CAL-148 [8] it was 42.1%; in the experiment on HDQ-P1 [9], 74%; in the experiment with MDA-MB-453 [10], 60.2%; in the experiment with DU-4475 [11], 72.8%; in the experiment with CAL-51 [12] it was 42.9%.
As for `Nc1ccn([C@@H]2O[C@H](CO)[C@@H](O)C2(F)F)c(=O)n1` [Gemcitabine] (300 nM), the normalised viability is 43.2% with CAL-85-1 [1]; 34.9% in the experiment on CAL-148 [2]; 82.1% with HDQ-P1 [3]; 44.1% in the experiment on MDA-MB-453 [4]; 39.8% in the experiment on DU-4475 [5]; 15.7% with CAL-51 [6].
In the case of `CC(C)C[C@H](NC(=O)[C@@H](COC(C)(C)C)NC(=O)[C@H](Cc1ccc(O)cc1)NC(=O)[C@H](CO)NC(=O)[C@H](Cc1c[nH]c2ccccc12)NC(=O)[C@H](Cc1cnc[nH]1)NC(=O)[C@@H]1CCC(=O)N1)C(=O)N[C@@H](CCCNC(=N)N)C(=O)N1CCC[C@H]1C(=O)NNC(N)=O` [Goserelin] (300 nM), the normalised viability in the experiment with CAL-85-1 [7] was found to be 99.7%; in the experiment with CAL-148 [8] it was 104%; in the experiment on HDQ-P1 [9] it was 91.4%; in the experiment with MDA-MB-453 [10], 106%; in the experiment with DU-4475 [11] it was 106%; in the experiment on CAL-51 [12], 108%.
Regarding `CC(C)C[C@H](NC(=O)[C@@H](COC(C)(C)C)NC(=O)[C@H](Cc1ccc(O)cc1)NC(=O)[C@H](CO)NC(=O)[C@H](Cc1c[nH]c2ccccc12)NC(=O)[C@H](Cc1cnc[nH]1)NC(=O)[C@@H]1CCC(=O)N1)C(=O)N[C@@H](CCCNC(=N)N)C(=O)N1CCC[C@H]1C(=O)NNC(N)=O` [Goserelin] (3000 nM), the normalised viability in the experiment on CAL-85-1 [1] was determined as 103%; in the experiment on CAL-148 [2] it was 99.8%; in the experiment on HDQ-P1 [3], 106%; with MDA-MB-453 [4], 122%; in the experiment with DU-4475 [5] it was 92.5%; with CAL-51 [6], 108%.
As for `CC(=O)[C@]1(O)Cc2c(O)c3c(c(O)c2[C@@H](O[C@H]2C[C@H](N)[C@H](O)[C@H](C)O2)C1)C(=O)c1ccccc1C3=O` [Idarubicin] (30 nM), the normalised viability in the experiment with CAL-85-1 [7] was determined as 89.9%; in the experiment on CAL-148 [8] it was 40.7%; in the experiment on HDQ-P1 [9], 83.6%; with MDA-MB-453 [10] it was 101%; in the experiment with DU-4475 [11] it was 50%; in the experiment on CAL-51 [12] it was 31.1%.
As for `CC(=O)[C@]1(O)Cc2c(O)c3c(c(O)c2[C@@H](O[C@H]2C[C@H](N)[C@H](O)[C@H](C)O2)C1)C(=O)c1ccccc1C3=O` [Idarubicin] (300 nM), the normalised viability in the experiment on CAL-85-1 [1] is 47.1%; in the experiment on CAL-148 [2], 7.71%; in the experiment on HDQ-P1 [3] it was 48.7%; in the experiment on MDA-MB-453 [4], 68.7%; with DU-4475 [5] it was 7.47%; with CAL-51 [6], 20.9%.
Regarding `C/C(=C\c1csc(C)n1)[C@@H]1C[C@@H]2O[C@]2(C)CCC[C@H](C)[C@H](O)[C@@H](C)C(=O)C(C)(C)[C@@H](O)CC(=O)N1` [Ixabepilone] (30 nM), the normalised viability with CAL-85-1 [7] is 85%; with CAL-148 [8], 99.2%; in the experiment with HDQ-P1 [9] it was 71.6%; in the experiment with MDA-MB-453 [10], 102%; in the experiment with DU-4475 [11], 88.9%; in the experiment on CAL-51 [12] it was 103%.
As to `C/C(=C\c1csc(C)n1)[C@@H]1C[C@@H]2O[C@]2(C)CCC[C@H](C)[C@H](O)[C@@H](C)C(=O)C(C)(C)[C@@H](O)CC(=O)N1` [Ixabepilone] (300 nM), the normalised viability was 76.5% in the experiment with CAL-85-1 [1]; 87.3% in the experiment on CAL-148 [2]; 81.6% in the experiment with HDQ-P1 [3]; 89.8% in the experiment on MDA-MB-453 [4]; 92.9% with DU-4475 [5]; 117% with CAL-51 [6].
